We go through eleven compounds from patent publication US11708348B2, “Protease inhibitors for treatment of coronavirus infections” (The Scripps Research Institute, priority 2021, dated 2023).

Where two headings read alike, the source gives them in different places. Bounds are passed on as bounds.

The subject of test [1] is hospitalized COVID-19 patients. To be noted: large multi-center trial; cited from earlier work.
A further test deals with COVID-2 M^pro protease (Severe acute respiratory syndrome coronavirus 2, UniProt P0DTD1). To be noted: cell and enzyme assays; cited from earlier work.
Test [2] has as its system SARS-CoV-2 strain USA-WA1/2020. Put plainly: microbe, parasite or virus in culture. It counts as cell-based. The conditions noted are these: Severe acute respiratory syndrome coronavirus 2, HeLa-ACE2, 24 h, HeLa-ACE2 cells, SARS-CoV-2 infection, 24 h, read-out: EC50, uM (Hela).

In general, EC50 refers to the concentration needed to bring the measured effect to its halfway point.

Take `CCN(CCO)CCCC(C)Nc1ccnc2cc(Cl)ccc12` (centres unmarked) [hydroxychloroquine]: the “mortality of hospitalized COVID-19 patients” value in test [1] was “failed to reduce mortality”.

As to `COCC(=O)[C@H](C[C@@H]1CCNC1=O)NC(=O)[C@H](CC(C)C)NC(=O)c1cc2c(OC)cccc2[nH]1` [methyl ether of PF-00835231], the “fold less active than PF-00835231” value at COVID-2 M^pro protease is 3-5 fold.

`Cc1cccc(C)c1OCC(=O)N[C@@H](Cc1ccccc1)[C@@H](O)C[C@H](Cc1ccccc1)NC(=O)[C@H](C(C)C)N1CCCNC1=O` [lopinavir]: the “mortality of hospitalized COVID-19 patients” value in test [1] is “failed to reduce mortality”.

With `CC1(C)[C@@H]2[C@@H](C(=O)N[C@@H](C[C@@H]3CCNC3=O)C(=O)COC(F)(F)F)N(C(=O)[C@@H](O)c3ccccc3F)C[C@@H]21` [Compound 411, (1R,2S,5S)-3-((S)-2-(2-fluorophenyl)-2-hydroxyacetyl)-6,6-dimethyl-N-((S)-3-oxo-1-((S)-2-oxopyrrolidin-3-yl)-4-(trifluoromethoxy)butan-2-yl)-3-azabicyclo-[3.1.0]hexane-2-carboxamide], the EC50 in test [2] was under 0.05 µM.

`CC(C)C[C@H](NC(=O)C(=O)Nc1c(F)cccc1F)C(=O)N[C@@H](C[C@@H]1CCNC1=O)C(=O)COc1c(F)c(F)cc(F)c1F` [Compound 47, N1-(2,6-difluorophenyl)-N2-((S)-4-methyl-1-oxo-1-(((S)-3-oxo-1-((S)-2-oxopyrrolidin-3-yl)-4-(2,3,5,6-tetrafluorophenoxy)butan-2-yl)amino)pentan-2-yl)oxalamide]: the EC50 in test [2] (class symbols) is under 0.05 µM.

Turning to `C[C@@]12C[C@@H](C(=O)N[C@@H](C[C@@H]3CCNC3=O)C(=O)COC(F)(F)F)N(C(=O)C(=O)Nc3ccccc3F)[C@@H]1C2` [Compound 581, (1R, 3S, 5R)-2-(2-((2-fluorophenyl)amino)-2-oxoacetyl)-5-methyl-N-((S)-3-oxo-1-((S)-2-oxopyrrolidin-3-yl)-4-(trifluoromethoxy)butan-2-yl)-2-azabicyclo-[3.1.0]hexane-3-carboxamide], the EC50 in test [2] (given as bound) is over 1 µM.

Turning to `CC(C)C[C@H](NC(=O)C(C)(C)O)C(=O)N[C@@H](C[C@@H]1CCNC1=O)C(=O)COC(F)(F)F` [Compound 353, (S)-2-(2-hydroxy-2-methylpropanamido)-4-methyl-N-((S)-3-oxo-1-((S)-2-oxopyrrolidin-3-yl)-4-(trifluoromethoxy)butan-2-yl)pentanamide], in test [2] (class symbols), the EC50 lay within 0.05 to 0.2 µM.

For `O=C1NCC[C@H]1C[C@H](NC(=O)[C@@H]1[C@H]2CCC[C@H]2CN1C(=O)c1cc(C(F)(F)F)on1)C(=O)COC(F)(F)F` [Compound 483, (1S,3aR,6aS)-N-((S)-3-oxo-1-((S)-2-oxopyrrolidin-3-yl)-4-(trifluoromethoxy)butan-2-yl)-2-(5-(trifluoromethyl)-isoxazole-3-carbonyl)octahydro-cyclopenta[c]pyrrole-l-carboxamide], the EC50 in test [2] fell in the range of 0.05 to 0.2 µM.

With `CCC[C@@H](O)C(=O)N1C[C@@H]2CCC[C@@H]2[C@H]1C(=O)N[C@@H](C[C@@H]1CCNC1=O)C(=O)COC(F)(F)F` [Compound 425, (1S,3aR,6aS)-2-((R)-2-hydroxypentanoyl)-N-((S)-3-oxo-1-((S)-2-oxopyrrolidin-3-yl)-4-(trifluoromethoxy)butan-2-yl)octahydrocyclo-penta[c]pyrrole-1-carboxamide], the EC50 in test [2] is 0.05 to 0.2 µM.

Take `COc1cccc2[nH]c(C(=O)N[C@@H](CC(C)C)C(=O)N[C@@H](C[C@@H]3CCNC3=O)C(=O)COC(F)(F)F)cc12` [Compound 158, 4-methoxy-N—((S)-4-methyl-1-oxo-1-(((S)-3-oxo-1-((S)-2-oxopyrrolidin-3-yl)-4-(trifluoromethoxy)butan-2-yl)amino)pentan-2-yl)-1H-indole-2-carboxamide]: the EC50 in test [2] (class symbols) was under 0.05 µM.

For `CC(C)C[C@@H](O)C(=O)N1CC2(CCC2)CC1C(=O)N[C@@H](C[C@@H]1CCNC1=O)C(=O)COC(F)(F)F` (stereo partly drawn) [Compound 770, 6-((R)-2-hydroxy-4-methylpentanoyl)-N-((S)-3-oxo-1-((S)-2-oxopyrrolidin-3-yl)-4-(trifluoromethoxy)butan-2-yl)-6-azaspiro[3.4]octane-7-carboxamide], the EC50 in test [2] lay within 0.05 to 0.2 µM.
